Reference: US20040247604A1, “Anti-inflamatory fatty alcohols and fatty acid esters useful as antigen carriers” (priority 2001, published 2004)
Where “and” joins values, the source holds several entries; their conditions need not be identical. Identical values can stand only once.

Test system: adjuvant arthritis
Test: Protection against adjuvant arthritis (AA): inhibition of joint inflammation
Format: in vivo, Lewis rats
Conditions: for inflammation suppressed on day of peak disease: day 26; for % Inhibition of inflammation of adjuvant arthritis: 100 μl, subcutaneously once (14 days before or day 12 after induction of AA), day of maximal inflammation

Row | Compound | % Inhibition of inflammation of adjuvant arthritis (Lewis rats) | further results
1 | CCCCCCCC/C=C\CCCCCCCCO [Oleyl alcohol, cis-9-octadecenol] | 78%-96% | inflammation suppressed on day of peak disease (10 μl SC once 14 days before induction of AA): 14%; inflammation suppressed on day of peak disease (50 μl SC once 14 days before induction of AA): 61%; inflammation suppressed on day of peak disease (100 μl SC once 14 days before induction of AA): 78%; inflammation suppressed on day of peak disease (500 μl SC once 14 days before induction of AA): 90%; suppression of the inflammation (500 μl oleyl alcohol, two further experiments, Lewis rats): 96% and 91%
2 | CCCCCCCC/C=C\CCCCCCCC(=O)OC [Methyl oleate] | 76% | –
3 | CCC=CCC=CC/C=C\CCCCCCCCO [Linolenyl alcohol, cis-9,12,15-octadecatrienol] | 75% | –
4 | CCCCCCCC/C=C\CCCCCCCC(=O)O [oleic acid, cis-9-octadecenoic acid, reference compound] | no effect | –
5 | CCCCCCCCCCCCCCCCO [Cetyl alcohol] | 66% | –
6 | Mannose monooleate | 95% | –
7 | CCCCCCCC/C=C\CCCCCCCC(=O)OCC(O)CO (stereo not shown) [Glycerol mono-oleate] | 98% | –
8 | CCCCCCCC/C=C\CCCCCCCC(=O)OCC [Ethyl oleate] | 92% | –
